Patent US20150218212A1, “FLUORINATED EPOXYKETONE-BASED TETRAPEPTIDE COMPOUNDS AND USES THEREOF AS PROTEASOME INHIBITORS” (FLUORINOV PHARMA INC., priority 2012, published 2015)
Read-outs that look alike come from different tables or passages of the source.

Legend:
[1] = molecular target: T1, proteasome Chymotrypsin-like (CT-L) activity (Mus musculus, UniProt O09061+O55234); assay: Pharmacodynamic proteasome activity in murine red blood cells, CT-L; type: in vivo, NOD/SCID mice; conditions: iv, mice, 2 mg/kg i.v.
T1 construct: RBCs were lysed with assay lysis buffer and incubated on ice for 30 minutes; from tissue; host or cells: red blood cells of NOD/SCID mice
Description: Cells were harvested by centrifugation at 1,200 rpm at room temperature. Cell pellets were washed with PBS (phosphate buffered saline) and lysed with assay lysis buffer (50 mM HEPES (N-2-hydroxyethylpiperazine-N′-2-ethanesulfonic acid), pH 7.5; 150 mM NaCl; 1% Triton X-100; 2 mM ATP). Cell lysates were incubated on ice for 30 minutes, mixed by vortex every 5 minutes, and then centrifuged at 12,000 g for 10 minutes. The supernatant was transferred to a 96-well plate. For each assay, 10 μg of total protein were incubated for 1 hour at 37° C. with increasing concentrations (1 nM to 10 μM) of test compound diluted in assay buffer (50 mM tris-HCl (tris(hydroxymethyl)aminomethane-HCl), pH 7.5; 150 mM NaCl). DMSO alone was used as a control in every assay plate. After incubation, a specific fluorogenic proteasome substrate was added to each assay reaction at a final concentration of 40 μM in a total volume of 100 μL. N-Succinyl-Leu-Leu-Val-Tyr-7-amino-4-methylcoumarin (Suc-Leu-Leu-Val-Tyr-AMC) was used for measuring chymotrypsin-like (CT-L) activity, t-butoxycarbonyl-Leu-Arg-Arg-7-amino-4-methylcoumarin (Boc-Leu-Arg-Arg-AMC) for trypsin-like (T-L) activity, and benzyloxycarbonyl-L-leucyl-L-leucyl-L-glutamyl-7-amino-4-methylcoumarin (Z-Leu-Leu-Glu-AMC) for caspase-like (C-L) activity. The excitation wavelength was set at 360 nm and the fluorescence emission wavelength of AMC was detected at 460 nm. The fluorescence of free AMC released during the enzymatic reaction was measured with a SpectraMax M5 fluorescent spectrophotometric plate reader (Molecular Devices, Sunnyvale, Calif.). AMC release rate was measured at 37° C. in a kinetic mode, recording every 5 minutes for 30 minutes. Experiments were performed in triplicate and repeated at least twice.
All mouse experiments were performed in accordance with approval from the Ontario Cancer Institute institutional animal review board. Five- to six-week-old male non-obese diabetic/severe combined immunodeficient (NOD/SCID) mice were grouped randomly (n=3 mice per group). Mice were administered vehicle (5% DMSO, 20% Cremophor) or compounds of Formula I at different doses either intravenously or by oral gavage, and venous blood samples (20-50 μL) were collected from each mouse over 24 hours. Blood samples were mixed with heparin (APP Pharmaceuticals; Schaumburg, Ill.) in 0.5 mL tubes in accordance with the manufacturer's instructions. After centrifugal separation at 3,000 g for 10 minutes, red blood cells (RBCs) in the bottom layer were transferred into a new tube and stored at −70° C. until use. RBCs were lysed with assay lysis buffer and incubated on ice for 30 minutes, mixing by vortex every 5 minutes, and then centrifuged at 12,000 g for 10 minutes. The supernatant was transferred to a 96-well plate and proteasome activity was measured as described above for tumor cell lysates.
Proteasome subunit activity (Chymotrypsin-like, Trypsin-like, Caspase-like, CT-L, T-L, C-L, respectively) were monitored over the course of 24 hrs following […] administration of representative compounds of Formula I. NOD/SCID mice were treated with compounds of Formula I (2 mg/kg by iv administration) or vehicle control and carfilzomib for up to 24 hours, as described above. Table 9 summarizes the data on pharmacodynamic activity of representative compounds of Formula I following a dose of 2 mg/kg intravenous (i.v) administration to mice. Data are presented as mean residual activity (SEM) relative to vehicle treated controls.

KMS-11 = assay: Cell viability (MTS) assay, KMS-11; type: cell-based; conditions: Homo sapiens; KMS-11, MTS, 72 hours, mean ± standard deviation
Description: Human multiple myeloma cell lines 8226, H929, JJN3, KMH11, KMS11, KMS18, LP1, MM1S, OPM2 and U266 were grown in Iscove modified Dulbecco's medium (IMDM). Human leukemia cell lines K562, OCI-AML2 and U937 were cultured in RPMI-1640 medium. Primary peripheral blood mononuclear cells were isolated from multiple myeloma patients by Ficoll density gradient centrifugation and bone marrow aspirates were obtained from multiple myeloma patients at the Princess Margaret Cancer Centre of the University Health Network (UHN; Toronto, ON, Canada). Primary cells were cultured in IMDM. The collection and use of human tissue for this study was approved by the UHN institutional ethics review board. All cell culture media were obtained from the Ontario Cancer Institute Tissue Culture Media Facility (Toronto, ON, Canada) and were supplemented with 10% fetal calf serum, […] (Hyclone, Logan, Utah). All cells were grown in a humidified incubator at 37° C. with 5% CO2.
Cellular viability was primarily assessed by 3-(4,5-dimethylthiazol-2-yl)-5-(3-carboxymethoxyphenyl)-2-(4-sulfophenyl)-2H-tetrazolium (MTS) assay according to the manufacturer's instructions (Promega; Madison, Wis.). Cells were first seeded at a density of 10,000 cells per well in tissue culture-treated 96-well plates. Two hours after seeding, cells were treated with compounds for 72 hours at concentrations as indicated. As a control, cells were treated with DMSO alone in every assay plate. Following treatment and the MTS assay, cell viability was independently confirmed by reading the optical density (O.D.) at 490 nm and by exclusion of trypan blue stain (Invitrogen; Burlington, ON, Canada). The viability of primary mononuclear cells was determined by staining with Annexin V.
Table 8 summarizes the data of representative compounds of Formula I for cell viability and CT-L proteasome activity with OCI-AML-2 and KMS-11 cell lines.

[2] = 30 min, read-out: Chymotrypsin-like (CT-L) mean residual activity relative to vehicle treated controls
[3] = 24 hrs, read-out: Chymotrypsin-like (CT-L) mean residual activity relative to vehicle treated controls
[4] = time 0, read-out: Chymotrypsin-like (CT-L) mean residual activity relative to vehicle treated controls

SMILES	remaining activity at 2 mg/kg [1, 2]	remaining activity at 2 mg/kg [1, 3]	remaining activity at 2 mg/kg [1, 4]	IC50 (KMS-11)
CC(C)C[C@H](NC(=O)[C@H](COC(F)F)NC(=O)CN1CCOCC1)C(=O)N[C@@H](COC(F)F)C(=O)N[C@@H](CC(C)C)C(=O)[C@@]1(C)CO1 [Example 1, (2S)—N-[(1S)-1-(difluoromethoxymethyl)-2-[[(1S)-3-methyl-1-[(2R)-2-methyloxirane-2-carbonyl]butyl]amino]-2-oxo-ethyl]-2-[[(2S)-3-(difluoromethoxy)-2-[(2-morpholinoacetyl)amino]propanoyl]amino]-4-methyl-pentanamide]	20%	21%	100%	0.0266 ± 0.00847 µM
CC(C)C[C@H](NC(=O)[C@H](COC(F)F)NC(=O)CN1CCOCC1)C(=O)N[C@@H](Cc1ccccc1)C(=O)N[C@@H](CC(C)C)C(=O)[C@@]1(C)CO1 [Example 2, (2S)-N-[(1S)-1-benzyl-2-[[(1S)-3-methyl-1-[(2R)-2-methyloxirane-2-carbonyl]butyl]-amino]-2-oxo-ethyl]-2-[[(2S)-3-(difluoromethoxy)-2-[(2-morpholinoacetyl)amino]propanoyl]amino]-4-methyl-pentanamide]	29%	24%	100%	0.0219 ± 0.000342 µM
CC(C)C[C@H](NC(=O)[C@H](COC(F)F)NC(=O)CN1CCOCC1)C(=O)N[C@@H](Cc1ccccc1)C(=O)N[C@@H](Cc1ccccc1)C(=O)[C@@]1(C)CO1 [Example 3, (2S)-N-[(1S)-1-benzyl-2-[[(1S)-1-benzyl-2-[(2R)-2-methyloxiran-2-yl]-2-oxo-ethyl]amino]-2-oxo-ethyl]-2-[[(2S)-3-(difluoromethoxy)-2-[(2-morpholinoacetyl)-amino]propanoyl]amino]-4-methyl-pentan-amide]	29%	31%	100%	0.0176 ± 0.000629 µM
CC(C)C[C@H](NC(=O)[C@H](COC(F)F)NC(=O)CN1CCOCC1)C(=O)N[C@@H](COC(F)F)C(=O)N[C@@H](Cc1ccccc1)C(=O)[C@@]1(C)CO1 [Example 4, (2S)-N-[(1S)-2-[[(1S)-1-benzyl-2-[(2R)-2-methyloxiran-2-yl]-2-oxo-ethyl]amino]-1-(difluoromethoxymethyl)-2-oxo-ethyl]-2-[[(2S)-3-(difluoromethoxy)-2-[(2-mor-pholinoacetyl)amino]propanoyl]amino]-4 methyl-pentanamide]	34%	37%	100%	0.0339 ± 0.00211 µM
CC(C)C[C@H](NC(=O)[C@H](COC(F)F)NC(=O)[C@H](COC(F)F)NC(=O)[C@H](CCc1ccccc1)NC(=O)CN1CCOCC1)C(=O)[C@@]1(C)CO1 [Example 7, (2S)-N-[(1S)-1-(difluoromethoxymethyl)-2-[[(1S)-1-(difluoromethoxymethyl)-2-[[(1S)-3-methyl-1-[(2R)-2-methyloxirane-2-carbo-nyl]butyl]amino]-2-oxo-ethyl]amino]-2-oxo-ethyl]-2-[(2-morpholinoacetyl)amino]-4-phenyl-butanamide]	35%	30%	100%	0.0198 ± 0.000532 µM
CC(C)C[C@H](NC(=O)[C@H](Cc1ccccc1)NC(=O)[C@H](COC(F)F)NC(=O)[C@H](COC(F)F)NC(=O)CN1CCOCC1)C(=O)[C@@]1(C)CO1 [Example 11, (2S)-2-[[(2S)-3-(difluoromethoxy)-2-[[(2S)-3-(difluoromethoxy)-2-[(2-morpholinoacetyl)-amino]propanoyl]amino]propanoyl]amino]-N-[(1S)-3-methyl-1-[(2R)-2-methyloxirane-2-carbonyl]butyl]-3-phenyl-propanamide]	30%	28%	100%	0.0243 ± 0.000568 µM
CC(C)C[C@H](NC(=O)[C@H](COC(F)F)NC(=O)[C@H](COC(F)F)NC(=O)[C@H](COC(F)F)NC(=O)CN1CCOCC1)C(=O)[C@@]1(C)CO1 [Example 17, (2S)-3-(difluoromethoxy)-N-[(1S)-1-(difluoromethoxymethyl)-2-[[(1S)-1-(difluoro-methoxymethyl)-2-[[(1S)-3-methyl-1-[(2R)-2-methyloxirane-2-carbonyl]butyl]amino]-2-oxo-ethyl]amino]-2-oxo-ethyl]-2-[(2-mor-pholinoacetyl)amino]-propanamide]	25%	23%	100%	0.166 ± 0.0134 µM
